Consider 16 compounds from paper PMC4890880 (ACS infectious diseases, 2016).

This experiment deals with HepG2-A16-CD81EGFP cells. The settings on record: for IC50: read-out: Tox_IC50, HepG2 cytotoxicity.
[1] abbreviates: 2nd round, maximal inhibition in dose series.
The mark [2] stands for this setting: sheet 2nd round, maximal inhibition in dose response.

Molecules are shown by their SMILES. Read-outs that look alike come from different tables or passages of the source. A value given as a limit tells only on which side of the number the result lay.

`CCCNC(=O)N1[C@H](C#N)[C@H](c2ccccc2-c2ccc(OC)cc2)[C@@H]1CO` [BRD-K19492647-001-01-0]: under setting [1], the “Tox_max_inhibition (%)” value came out at 9%. In addition, the IC50 (2nd round, unit inferred) is more than 10 µM.
In the case of `O=C(Cc1ccccc1)N1CC(=O)N2[C@H](CO)[C@H](c3ccc(C#CCc4ccccc4)cc3)[C@H]2C1` [BRD-K27191881-001-01-3], under “sheet 2nd round”, the IC50 is more than 10 µM. The “Tox_max_inhibition (%)” value under setting [2] was determined as 3.49%.
Taken in the same sequence, the figures for `C[C@@H]1CN([C@H](C)CO)C(=O)c2cccc(NC(=O)c3ccc(-c4nccs4)cc3)c2O[C@@H]1CN(C)C(=O)Nc1ccc(C(F)(F)F)cc1` [BRD-K36757984-001-01-6] were more than 10 µM and 2.49%.
As to `CN1C(=O)c2cc(NC(=O)c3ccc(C(F)(F)F)cc3)ccc2OC[C@H]2O[C@H](CC(=O)NCc3ccc4c(c3)OCO4)CC[C@@H]21` [BRD-K92009254-001-01-6], for the setting “sheet "2nd round"”, the IC50 was determined as 8.97 µM and the “Tox_max_inhibition (%)” value worked out at 53%.
As for `CCCNC(=O)N1[C@H](CO)[C@H](c2ccc(C#Cc3cccc(F)c3)cc2)[C@@H]1C#N` [BRD-K10089781-004-02-1], the IC50 (sheet 2nd round) was more than 10 µM. Moreover, the “Tox_max_inhibition (%)” value under setting [2] is 13%.
On to `COc1ccc(-c2ccc([C@H]3[C@@H](C#N)N(C(=O)NC(C)C)[C@@H]3CO)cc2)cc1` [BRD-K42750356-001-01-3], for which, for the setting “sheet "2nd round"”, the IC50 is more than 10 µM and the “Tox_max_inhibition (%)” value is recorded as 10%.
In the case of `O=C(C[C@H]1CC[C@@H]2[C@H](COC[C@H](O)CN2Cc2ccc(C(F)(F)F)cc2)O1)N1CCc2ccccc2C1` [BRD-K49087010-001-01-1], where the note is “sheet "2nd round"”, the IC50 was determined as 9.12 µM and the “Tox_max_inhibition (%)” value amounted to 60%.
Consider `CC(C)(C)[S+]([O-])N1Cc2cc(C(=O)NCc3ccc4c(c3)OCO4)nc(-c3cccc(-c4cc5ccccc5o4)c3)c2[C@H]1CCO` (some centres unmarked) [BRD-K19560511-001-03-3], for which, under setting [1], the “Tox_max_inhibition (%)” value is listed as 12%. For the setting “2nd round, unit inferred”, the IC50 was more than 10 µM.
On to `O=C(Nc1ccccc1F)N1CCCCN2[C@H](CO)[C@H](c3ccc(/C=C/c4ccccc4)cc3)[C@@H]2C1` [BRD-K85670919-001-01-1], for which, where the note is “sheet 2nd round”, the IC50 was more than 10 µM. Also, the “Tox_max_inhibition (%)” value under setting [2] was 13%.
The like results for `C[C@@H]1CCCCO[C@H](CN(C)S(=O)(=O)c2ccc(F)cc2)[C@@H](C)CN([C@H](C)CO)C(=O)c2cc(N(C)C)ccc2O1` [BRD-K38977317-001-01-6] were, in that order, more than 10 µM and 6%.
Take `C[C@H](CO)N1C[C@H](C)[C@@H](CN(C)S(=O)(=O)c2ccccc2)OCCCC[C@H](C)Oc2ccc(NC(=O)Nc3ccc4c(c3)OCO4)cc2C1=O` [BRD-K78605373-001-01-5]: the “Tox_max_inhibition (%)” value under setting [1] came out at 10%. Besides, the IC50 (2nd round, unit inferred) was more than 10 µM.
With `COc1cccc(-c2cccc(-c3nc(C(=O)NCc4ccc(Oc5ccccc5)cc4)cc4c3[C@@H](CCO)N([S+]([O-])C(C)(C)C)C4)c2)c1` (some centres unmarked) [BRD-K03403405-001-03-3], where the note is “sheet 2nd round”, the IC50 was more than 10 µM. Besides, the “Tox_max_inhibition (%)” value under setting [2] was 6%.
The like results for `C[C@H](CO)N1C[C@H](C)[C@H](CN(C)C(=O)C2CCCCC2)Oc2ncc(C#Cc3cccc(F)c3)cc2C1=O` [BRD-K77264696-001-01-2] were, in that order, more than 10 µM and 30%.
In the case of `C[C@@H]1CCCCO[C@@H](CN(C)C(=O)Nc2cccc3ccccc23)[C@H](C)CN([C@@H](C)CO)C(=O)c2cc(NC(=O)CCC(F)(F)F)ccc2O1` [BRD-K26887637-001-01-4], for the setting “sheet 2nd round”, the IC50 was more than 10 µM. Moreover, under setting [2], the “Tox_max_inhibition (%)” value worked out at 11%.
Consider `C[C@H]1CCCCO[C@H](CN(C)S(=O)(=O)c2ccccc2)[C@@H](C)CN([C@@H](C)CO)C(=O)c2cc(NC(=O)Nc3ccc4c(c3)OCO4)ccc2O1` [BRD-K40819914-001-01-3], for which, under “sheet "2nd round"”, the IC50 was more than 10 µM and the “Tox_max_inhibition (%)” value worked out at 8.49%.
Turning to `CCCNC(=O)N1[C@H](C#N)[C@H](c2ccc(C#Cc3cccc(F)c3)cc2)[C@H]1CO` [BRD-K31857539-001-01-9], where the note is “sheet "2nd round"”, the IC50 is more than 10 µM and the “Tox_max_inhibition (%)” value was 6%.
